Assay type in all cases: biochemical
Test [1] deals with T1, Human mitochondrial LonP1 (wild-type) ATPase (Homo sapiens, UniProt P36776).
T1 construct: hexa-histidine (N); made in house; host or cells: Rosetta 2 E. coli
T1 sequence (P36776 68-959): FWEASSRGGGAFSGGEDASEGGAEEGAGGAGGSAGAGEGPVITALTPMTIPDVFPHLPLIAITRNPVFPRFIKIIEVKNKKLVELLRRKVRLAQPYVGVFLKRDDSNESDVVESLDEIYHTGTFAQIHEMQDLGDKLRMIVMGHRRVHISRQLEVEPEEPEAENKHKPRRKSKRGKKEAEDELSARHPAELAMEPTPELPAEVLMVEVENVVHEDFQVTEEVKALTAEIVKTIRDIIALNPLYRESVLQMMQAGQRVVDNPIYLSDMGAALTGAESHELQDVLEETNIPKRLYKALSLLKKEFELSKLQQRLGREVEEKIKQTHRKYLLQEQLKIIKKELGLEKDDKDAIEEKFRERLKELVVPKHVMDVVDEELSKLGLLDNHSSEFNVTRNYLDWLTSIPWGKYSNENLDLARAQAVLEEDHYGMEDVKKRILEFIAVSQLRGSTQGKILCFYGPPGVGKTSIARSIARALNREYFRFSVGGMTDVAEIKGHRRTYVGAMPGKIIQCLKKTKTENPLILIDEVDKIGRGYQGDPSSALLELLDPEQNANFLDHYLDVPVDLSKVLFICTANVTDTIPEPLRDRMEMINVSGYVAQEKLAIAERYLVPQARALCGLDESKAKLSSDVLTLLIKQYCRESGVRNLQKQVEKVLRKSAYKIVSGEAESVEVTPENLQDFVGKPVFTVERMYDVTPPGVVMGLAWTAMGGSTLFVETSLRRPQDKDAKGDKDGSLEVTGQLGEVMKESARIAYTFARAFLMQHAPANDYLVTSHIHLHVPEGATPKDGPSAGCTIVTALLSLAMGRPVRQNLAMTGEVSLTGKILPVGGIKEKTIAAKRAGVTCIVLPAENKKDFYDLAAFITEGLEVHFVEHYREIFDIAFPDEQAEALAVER
The test is described as follows: Endpoint ATPase assay (ADP-Glo), wild-type LonP1. The following applies: end-point ATPase assay, 1 mM ATP, 60 min preincubation 25 °C; Table 1. As for the experimental part:
ADP-Glo (Promega) assays were performed according to the manufacturer's protocols. Purified wild-type or mutant LonP1 (400 nM monomer), the 26S proteasome (3 nM), or no enzyme controls were preincubated in 96-well plates (60 min, 25 °C) with ten different concentrations of CDDO and its derivatives, TP-82, enoxolone (5 μM) or DMSO vehicle control in buffer (40 mM Tris-HCl (pH 7.5), 20 mM MgCl2, 0.1 mg/ml BSA and 5% DMSO). The 26S and 20S proteasome were also assayed at 0, 0.75, 1.5, 3, 6, and 12 nM in the absence of CDDO derivatives. UltraPure ATP (1 mM final) was added, and reactions (50 μl final) were incubated for 60 min at 25 °C, then 5 μl was transferred in quadruplicate to a 384-well plate. Assay reagents were used to quench further ATPase activity and generate luminescence signals proportional to the concentration of ADP formed. Background (no enzyme control) luminescence values were subtracted, and resultant values were reported as a percentage of the no drug control (100%). Data were fit to four-parameter dose–response curves using GraphPad Prism. The error bars represent the standard deviation (SD) of four replicate reactions from at least three independent experiments.

For test [2], the target named is T2, Human mitochondrial LonP1 (LonP1^WT) ATPase (Homo sapiens, UniProt P36776).
T2 construct: hexa-histidine (N); made in house; host or cells: Rosetta 2 E. coli
T2 sequence (P36776 68-959): T1 sequence (P36776 68-959)
The test is described as follows: Continuous NADH-coupled ATPase assay, wild-type LonP1. The conditions noted are these: for Modality (mechanism of LonP1 ATPase inhibition) / Ki / αKi / α: continuous ATPase assay; for Modality (mechanism of LonP1 ATPase inhibition): ATP titrated; for Ki: LonP1 400 nM, 30 min preincubation; for αKi: dissociation constant for ES complex; for α: relates αKi to Ki. As for the experimental part:
ATPase reactions (200 μl total) were performed in 96-well plates at room temperature. LonP1 (400 nM monomer) was preincubated with DMSO (1–2%) vehicle control or CDDO derivatives in buffer (50 mM HEPES-KOH pH 7.5, 5 mM magnesium acetate, 75 mM potassium acetate) for 30 to 45 min at room temperature or 30 °C. The reactions were initiated by the addition of phosphoenolpyruvate (PEP, 3 mM), NADH (300 μM), pyruvate kinase and lactate dehydrogenase (PK-LDH) (12–20 U/ml), and ATP concentrations as indicated. The change in NADH absorbance at 340 nm was monitored in Spectramax plate reader for 5 min to obtain reaction velocities. Data were fit to the Michaelis–Menten curve using GraphPad Prism 5, and the error bars represent the standard deviation (SD) of four replicate reactions from at least three independent experiments.

Test [3] addresses T3, Human LonP1 protease (Homo sapiens, UniProt P36776).
T3 construct: hexa-histidine (N); made in house; host or cells: Rosetta 2 E. coli
T3 sequence (P36776 68-959): T1 sequence (P36776 68-959)
The test is described as follows: FITC-casein protease assay (ATP-dependent proteolysis). The conditions noted are these: for Inhibition of LonP1-mediated degradation of FITC-casein: 30 min preincubation at 30 °C, ATP 4 mM; for Preincubation time after which ATP-dependent proteolysis is inhibited: preincubation at 30 °C. The procedure:
Human LonP1 (1.0 μM monomer) was preincubated with CDDO derivatives, TP-82, enoxolone (5 μM) or DMSO vehicle control (1%) in buffer (150 mM NaCl, 50 mM Hepes-KOH pH 8.0, 10 mM MgCl2, 0.1 mg/ml BSA) for 30 min at 30 °C. Reactions were initiated by the addition of FITC-casein (0.1 mg/ml) and ATP (4.0 mM) and incubated at 37 °C. The kinetics of FITC-casein degradation was measured by the increase in relative fluorescence units (RFU) at 490–525 nm wavelength at 37 °C using a Spectramax or Biotek Synergy plate reader. For endpoint assays, aliquots of reactions incubated at 37 °C were removed at indicated time points and terminated by adding 5X reducing sample buffer (RSB). The decrease of intact FITC-casein was determined by SDS-PAGE followed by visualization using FluorChem or Chemi-Doc systems.
Reactions (500 μl) containing LonP1 (1.0 μM monomer) in buffer (150 mM NaCl, 50 mM Hepes-KOH pH 8.0, 10 mM MgCl2) were preincubated with CDDO-Me (10 μM) or DMSO (1%) for 60 min at 30 °C. After this period, respective aliquots (50 μl) were removed and assayed for FITC-casein degradation to confirm inhibition by CDDO-Me. The remaining 450 μl reaction was transferred to a Slide-A-Lyzer (100 kDa MWCO) and dialyzed against 500 ml Buffer K (50 mM Hepes KOH, pH 8.0, 150 mM NaCl, 10 mM MgOAc2, 20% glycerol) for 24 h at 4 °C. After this period, the protein concentration was measured to determine protein recovery and the protease activity of LonP1, which had been preincubated with and without CDDO-Me was measured using the FITC-casein degradation assay.

For orientation: IC50 means the concentration at which inhibition is half-maximal. Read a low IC50 as greater potency. As usually defined, the Ki is the equilibrium dissociation constant of an inhibitor or competing ligand from its target. Read a low Ki as higher affinity.

“And” between values parts separate entries of the source, which are not always exact repeats. Equal values may be shown once.

On to `CC1(C)CC[C@]2(C(=O)O)CC[C@]3(C)[C@H](C(=O)C=C4[C@@]5(C)C=C(C#N)C(=O)C(C)(C)[C@@H]5CC[C@]43C)[C@@H]2C1` [CDDO, 2-cyano-3,12-dioxooleana-1,9(11)-dien-28-oic acid], for which, in test [1], the IC50 came to 13 ± 6 µM. In test [2], the “Modality (mechanism of LonP1 ATPase inhibition)” value is recorded as “noncompetitive”; the affinity, expressed as Ki, was 2.6 ± 0.5 µM; the αKi is 14 ± 2 µM and 14.0 ± 2.0 µM; the α came out at 5.4. In test [3], the “Inhibition of LonP1-mediated degradation of FITC-casein” value is “inhibit” and the “Preincubation time after which ATP-dependent proteolysis is inhibited” value is reported as not below 20 min.
Molecule `COC(=O)[C@]12CCC(C)(C)C[C@H]1[C@H]1C(=O)C=C3[C@@]4(C)C=C(C#N)C(=O)C(C)(C)[C@@H]4CC[C@@]3(C)[C@]1(C)CC2` [CDDO-Me] yielded an IC50 in test [1] of 1.9 ± 0.3 µM. Further, in test [2], the “Modality (mechanism of LonP1 ATPase inhibition)” value is reported as “noncompetitive”, the Ki came to 0.8 ± 0.1 µM, the αKi was determined as 3.3 ± 1.0 µM and the α is listed as 4.3. In test [3] (10 μM, dialysis at 4 °C for 24 h), the “Reversibility: proteolytic activity after dialysis” value is “restored proteolytic activity”. Besides, in test [3] (10 μM, preincubation 60 min at 30 °C), the “Degradation of FITC-casein before dialysis” value is “completely block”. For the same molecule, in test [3], the “Inhibition of LonP1-mediated degradation of FITC-casein” value was “inhibit” and the “Preincubation time after which ATP-dependent proteolysis is inhibited” value is on record as 5 min.
On to `CC1(C)CC[C@]2(C(=O)OC(=O)[C@]34CCC(C)(C)C[C@H]3[C@H]3C(=O)C=C5[C@@]6(C)C=C(C#N)C(=O)C(C)(C)[C@@H]6CC[C@@]5(C)[C@]3(C)CC4)CC[C@]3(C)[C@H](C(=O)C=C4[C@@]5(C)C=C(C#N)C(=O)C(C)(C)[C@@H]5CC[C@]43C)[C@@H]2C1` [CDDO-anhydride], for which it took 19.4 ± 3.3 µM to reach half-maximal inhibition in test [1] (IC50). Moreover, in test [2], the “Modality (mechanism of LonP1 ATPase inhibition)” value is “competitive” and the Ki stood at 9.5 ± 1.4 µM. In test [2] (fold higher), the “Ki relative to the Ki of other CDDO derivatives” value is approximately 3.5 fold.

The values are drawn from publication PMC8921294, “Inhibition of mitochondrial LonP1 protease by allosteric blockade of ATP binding and hydrolysis via CDDO and its derivatives” (The Journal of Biological Chemistry, 2022).
